Measurements taken from patent publication EP1900377A1, “Inhibitors of GPR87 for cancer therapy” (Boehringer Ingelheim International GmbH, priority 2006, dated 2008).

System: HN5 cells
Test: Rescue experiment: antibody pre-incubated with GPR87 N-terminal peptide
Format: cell-based, human
Conditions: 50 ug/ml antibody, increasing amounts of peptide, Fig. 7B
Description: Antibody targeting of hGPR87 on living cells is performed as follows: For antibody applications on living HN5 cells, a rabbit anti-hGPR87, directed against the N-terminus of hGPR87 (Novus Biologicals) is used (in Fig. 7A: N-term). HN5 cells are seeded (75000/6-well and 3000/96-well) the day prior to the antibody treatment. The antibody is used at a concentration of 50 ug/ml in medium without serum. 48 h after antibody addition the cells are either lysed for western blot analysis or analysed by AlamarBlue staining. Briefly, 10 ul of AlamarBlue reagent (Biosource, Camarillo USA/CA) are added to 100 ul medium and incubated until a change in color can be recognized (~6 hours). As a control, 50ug/ml antibody targeting C-terminal domain of human GPR87 is used (in Fig. 7A: C-term). Since antibodies are dissolved in PBS containing 0.01 %sodium azide, 0.01% sodium azide in PBS is added to the cells as a control to exclude toxic side effects (SA ctrl in Fig. 7A).
To determine the specificity of the anti-GPR87 antibody recognizing the N-terminus, in a so-called "rescue experiment", a peptide covering the first 46 amino acids of SEQ ID NO:2, is added. (The amounts used are 50 ug/ml of antibody and increasing amounts of GPR87 N-terminal peptide). […] The reversibility of the effects (proliferation and viability) correlates with the concentration of the blocking peptide (Fig. 7B).

GPR87 N-terminal peptide: a peptide covering the first 46 amino acids of SEQ ID NO:2 (MGFNLTLAKLPNNELHGQESHNSGNRSDGPGKNTTLHNEFDTIVLP)
reversal of the pro-apoptotic, anti-proliferative effect of the antibody: can be reversed
